# The OligoGym collection
# Oligonucleotides are written 5' to 3', each unit as a sugar letter and its base; * is a phosphorothioate linkage, no mark a phosphodiester; rarer units and linkages stand in square brackets, end groups in braces. Plain capitals give the bases only. Oligonucleotides are given in HELM: sugar(base)linkage, 5' to 3'; d 2'-deoxyribose, r ribose, m 2'-O-methylribose, p phosphate. ss, as = sense and antisense strand; d = 2'-deoxy (DNA); r = 2'-OH (RNA)
# Molecular target: UBE2I
# Test: reporter assay of Huesken 2005
# Conditions: siRNA
# Further: test concentration or dose not given here.
row,Substance,normalised inhibition (eCFP-eYFP dual reporter) [%]
1,sense rCrCrUrCrArUrGrArArCrUrGrGrGrArGrUrGrCdTdT / antisense rGrCrArCrUrCrCrCrArGrUrUrCrArUrGrArGrGdTdT,72.2
2,sense rCrCrUrUrCrGrGrGrGrArCrArGrUrGrUrGrCrCdTdT / antisense rGrGrCrArCrArCrUrGrUrCrCrCrCrGrArArGrGdGdT,51.1
3,sense rCrGrArArUrGrUrGrUrArCrCrCrUrUrCrGrGrGdTdT / antisense rCrCrCrGrArArGrGrGrUrArCrArCrArUrUrCrGdGdG,45.1
4,sense rCrGrArUrGrArArCrCrUrCrArUrGrArArCrUrGdTdT / antisense rCrArGrUrUrCrArUrGrArGrGrUrUrCrArUrCrGdTdG,78.2
5,sense rCrGrGrArUrGrCrUrUrUrUrCrArArArGrArUrGdTdT / antisense rCrArUrCrUrUrUrGrArArArArGrCrArUrCrCrGdTdA,87.3
6,sense rCrUrUrCrUrArArArUrGrArArCrCrArArArUrAdTdT / antisense rUrArUrUrUrGrGrUrUrCrArUrUrUrArGrArArGdTdT,88.8
7,sense rGrArArArGrArArArGrGrGrArCrUrCrCrGrUrGdTdT / antisense rCrArCrGrGrArGrUrCrCrCrUrUrUrCrUrUrUrCdCdT,53.1
8,sense rGrArArArGrGrGrArCrUrCrCrGrUrGrGrGrArAdTdT / antisense rUrUrCrCrCrArCrGrGrArGrUrCrCrCrUrUrUrCdTdT,89.3
9,sense rGrArGrGrArGrGrArCrArArGrGrArCrUrGrGrAdTdT / antisense rUrCrCrArGrUrCrCrUrUrGrUrCrCrUrCrCrUrCdTdA,70.5
10,sense rGrArGrGrCrUrUrGrUrUrUrArArArCrUrArCrGdTdT / antisense rCrGrUrArGrUrUrUrArArArCrArArGrCrCrUrCdCdT,73.2
11,sense rGrArGrUrGrCrGrCrCrArUrUrCrCrArGrGrArAdTdT / antisense rUrUrCrCrUrGrGrArArUrGrGrCrGrCrArCrUrCdCdC,72.6
12,sense rGrCrArCrGrArUrGrArArCrCrUrCrArUrGrArAdTdT / antisense rUrUrCrArUrGrArGrGrUrUrCrArUrCrGrUrGrCdCdA,84.4
13,sense rGrCrCrUrArCrArCrGrArUrUrUrArCrUrGrCrCdTdT / antisense rGrGrCrArGrUrArArArUrCrGrUrGrUrArGrGrCdCdT,67.8
14,sense rGrCrUrUrGrUrUrUrArArArCrUrArCrGrGrArUdTdT / antisense rArUrCrCrGrUrArGrUrUrUrArArArCrArArGrCdCdT,92.2
15,sense rGrGrArCrArArGrGrArCrUrGrGrArGrGrCrCrAdTdT / antisense rUrGrGrCrCrUrCrCrArGrUrCrCrUrUrGrUrCrCdTdC,85.9
16,sense rGrGrArGrGrCrUrUrGrUrUrUrArArArCrUrArCdTdT / antisense rGrUrArGrUrUrUrArArArCrArArGrCrCrUrCrCdTdT,82.5

row,Substance,normalised inhibition (eCFP-eYFP dual reporter) [%]
1,sense rGrGrGrGrArCrArGrUrGrUrGrCrCrUrGrUrCrCdTdT / antisense rGrGrArCrArGrGrCrArCrArCrUrGrUrCrCrCrCdGdA,47.8
2,sense rGrUrArArArUrUrCrGrArArCrCrArCrCrArUrUdTdT / antisense rArArUrGrGrUrGrGrUrUrCrGrArArUrUrUrArCdAdT,89.2
3,sense rUrArCrArCrGrArUrUrUrArCrUrGrCrCrArArAdTdT / antisense rUrUrUrGrGrCrArGrUrArArArUrCrGrUrGrUrAdGdG,92.9
4,sense rUrArUrUrArGrGrArArUrArCrArGrGrArArCrUdTdT / antisense rArGrUrUrCrCrUrGrUrArUrUrCrCrUrArArUrAdGdG,71.9
5,sense rUrArUrUrUrCrArCrCrCrGrArArUrGrUrGrUrAdTdT / antisense rUrArCrArCrArUrUrCrGrGrGrUrGrArArArUrAdAdT,78.9
6,sense rUrCrCrCrGrArUrGrGrCrArCrGrArUrGrArArCdTdT / antisense rGrUrUrCrArUrCrGrUrGrCrCrArUrCrGrGrGrAdTdT,48.8
7,sense rUrCrCrGrUrGrGrGrArArGrGrArGrGrCrUrUrGdTdT / antisense rCrArArGrCrCrUrCrCrUrUrCrCrCrArCrGrGrAdGdT,52.4
8,sense rUrGrArUrUrArUrCrCrArUrCrUrUrCrGrCrCrAdTdT / antisense rUrGrGrCrGrArArGrArUrGrGrArUrArArUrCrAdTdC,59
9,sense rUrGrGrGrArArGrGrArGrGrCrUrUrGrUrUrUrAdTdT / antisense rUrArArArCrArArGrCrCrUrCrCrUrUrCrCrCrAdCdG,78
10,sense rUrGrUrGrCrCrUrGrUrCrCrArUrCrUrUrArGrAdTdT / antisense rUrCrUrArArGrArUrGrGrArCrArGrGrCrArCrAdCdT,76
11,sense rUrGrUrUrUrArArArCrUrArCrGrGrArUrGrCrUdTdT / antisense rArGrCrArUrCrCrGrUrArGrUrUrUrArArArCrAdAdG,68.1
12,sense rUrUrArArArCrUrArCrGrGrArUrGrCrUrUrUrUdTdT / antisense rArArArArGrCrArUrCrCrGrUrArGrUrUrUrArAdAdC,50.2
13,sense rUrUrCrArArArGrArUrGrArUrUrArUrCrCrArUdTdT / antisense rArUrGrGrArUrArArUrCrArUrCrUrUrUrGrArAdAdA,65.2
14,sense rUrUrCrArCrCrCrGrArArUrGrUrGrUrArCrCrCdTdT / antisense rGrGrGrUrArCrArCrArUrUrCrGrGrGrUrGrArAdAdT,49.6
15,sense rUrUrCrGrArArCrCrArCrCrArUrUrArUrUrUrCdTdT / antisense rGrArArArUrArArUrGrGrUrGrGrUrUrCrGrArAdTdT,59.1

# Molecular target: CDC34
# Test: reporter assay of Huesken 2005
# Conditions: siRNA
row,Substance,normalised inhibition (eCFP-eYFP dual reporter) [%]
1,RNA1{r(A)p.r(A)p.r(C)p.r(G)p.r(U)p.r(G)p.r(G)p.r(A)p.r(C)p.r(G)p.r(C)p.r(C)p.r(U)p.r(C)p.r(C)p.r(G)p.r(U)p.r(G)p.r(A)p.d(T)p.d(T)}|RNA2{r(U)p.r(C)p.r(A)p.r(C)p.r(G)p.r(G)p.r(A)p.r(G)p.r(G)p.r(C)p.r(G)p.r(U)p.r(C)p.r(C)p.r(A)p.r(C)p.r(G)p.r(U)p.r(U)p.d(T)p.d(G)}$$$RNA1{StrandType:ss}|RNA2{StrandType:as}$,55.2
2,RNA1{r(A)p.r(A)p.r(G)p.r(A)p.r(C)p.r(C)p.r(A)p.r(A)p.r(G)p.r(G)p.r(C)p.r(G)p.r(C)p.r(C)p.r(G)p.r(G)p.r(C)p.r(G)p.r(C)p.d(T)p.d(T)}|RNA2{r(G)p.r(C)p.r(G)p.r(C)p.r(C)p.r(G)p.r(G)p.r(C)p.r(G)p.r(C)p.r(C)p.r(U)p.r(U)p.r(G)p.r(G)p.r(U)p.r(C)p.r(U)p.r(U)p.d(C)p.d(A)}$$$RNA1{StrandType:ss}|RNA2{StrandType:as}$,25.5
3,RNA1{r(A)p.r(A)p.r(G)p.r(A)p.r(U)p.r(G)p.r(U)p.r(G)p.r(G)p.r(C)p.r(A)p.r(C)p.r(C)p.r(C)p.r(U)p.r(A)p.r(A)p.r(C)p.r(A)p.d(T)p.d(T)}|RNA2{r(U)p.r(G)p.r(U)p.r(U)p.r(A)p.r(G)p.r(G)p.r(G)p.r(U)p.r(G)p.r(C)p.r(C)p.r(A)p.r(C)p.r(A)p.r(U)p.r(C)p.r(U)p.r(U)p.d(G)p.d(G)}$$$RNA1{StrandType:ss}|RNA2{StrandType:as}$,36.7
4,RNA1{r(A)p.r(C)p.r(A)p.r(G)p.r(A)p.r(C)p.r(A)p.r(U)p.r(C)p.r(A)p.r(U)p.r(C)p.r(C)p.r(G)p.r(G)p.r(A)p.r(A)p.r(G)p.r(C)p.d(T)p.d(T)}|RNA2{r(G)p.r(C)p.r(U)p.r(U)p.r(C)p.r(C)p.r(G)p.r(G)p.r(A)p.r(U)p.r(G)p.r(A)p.r(U)p.r(G)p.r(U)p.r(C)p.r(U)p.r(G)p.r(U)p.d(G)p.d(T)}$$$RNA1{StrandType:ss}|RNA2{StrandType:as}$,34.9
5,RNA1{r(A)p.r(C)p.r(C)p.r(A)p.r(U)p.r(U)p.r(C)p.r(U)p.r(C)p.r(C)p.r(U)p.r(G)p.r(A)p.r(G)p.r(U)p.r(G)p.r(U)p.r(G)p.r(A)p.d(T)p.d(T)}|RNA2{r(U)p.r(C)p.r(A)p.r(C)p.r(A)p.r(C)p.r(U)p.r(C)p.r(A)p.r(G)p.r(G)p.r(A)p.r(G)p.r(A)p.r(A)p.r(U)p.r(G)p.r(G)p.r(U)p.d(C)p.d(C)}$$$RNA1{StrandType:ss}|RNA2{StrandType:as}$,81.3
6,RNA1{r(A)p.r(C)p.r(C)p.r(C)p.r(C)p.r(A)p.r(C)p.r(G)p.r(C)p.r(A)p.r(G)p.r(A)p.r(A)p.r(C)p.r(G)p.r(U)p.r(C)p.r(A)p.r(G)p.d(T)p.d(T)}|RNA2{r(C)p.r(U)p.r(G)p.r(A)p.r(C)p.r(G)p.r(U)p.r(U)p.r(C)p.r(U)p.r(G)p.r(C)p.r(G)p.r(U)p.r(G)p.r(G)p.r(G)p.r(G)p.r(U)p.d(T)p.d(C)}$$$RNA1{StrandType:ss}|RNA2{StrandType:as}$,57.8
7,RNA1{r(A)p.r(C)p.r(C)p.r(U)p.r(C)p.r(U)p.r(U)p.r(C)p.r(U)p.r(A)p.r(C)p.r(G)p.r(A)p.r(C)p.r(G)p.r(A)p.r(C)p.r(U)p.r(A)p.d(T)p.d(T)}|RNA2{r(U)p.r(A)p.r(G)p.r(U)p.r(C)p.r(G)p.r(U)p.r(C)p.r(G)p.r(U)p.r(A)p.r(G)p.r(A)p.r(A)p.r(G)p.r(A)p.r(G)p.r(G)p.r(U)p.d(C)p.d(T)}$$$RNA1{StrandType:ss}|RNA2{StrandType:as}$,89.3
8,RNA1{r(A)p.r(C)p.r(G)p.r(C)p.r(U)p.r(G)p.r(G)p.r(C)p.r(C)p.r(G)p.r(A)p.r(G)p.r(U)p.r(A)p.r(C)p.r(U)p.r(G)p.r(C)p.r(G)p.d(T)p.d(T)}|RNA2{r(C)p.r(G)p.r(C)p.r(A)p.r(G)p.r(U)p.r(A)p.r(C)p.r(U)p.r(C)p.r(G)p.r(G)p.r(C)p.r(C)p.r(A)p.r(G)p.r(C)p.r(G)p.r(U)p.d(G)p.d(G)}$$$RNA1{StrandType:ss}|RNA2{StrandType:as}$,52.4
